# Results taken from PubChem BioAssay (NCI).
#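 Method: 48-hour compound exposure of cells in 96-well plates, five concentrations, linear interpolation of endpoints. GI50 is the concentration that inhibits growth by half. TGI marks complete inhibition of growth.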
# Key:
# Assay in all cases: NCI anticancer screen, dose series, 48 h
# [1] = system: NCI-H226 lung
# [2] = system: NCI-H23 lung
# [3] = system: NCI-H460 lung
# [4] = system: NCI-H522 lung
# [5] = system: OVCAR-3 ovarian
# [6] = system: OVCAR-4 ovarian
# [7] = system: OVCAR-5 ovarian
# [8] = system: OVCAR-8 ovarian
# [9] = system: PC-3 prostate
# [10] = system: RPMI-8226 leukemia
# [11] = system: RXF 393 renal
# [12] = system: SF-268 CNS
# [13] = system: SF-295 CNS
# [14] = system: SF-539 CNS
# [15] = system: SK-MEL-2 melanoma
# [16] = system: SK-MEL-28 melanoma
# [17] = system: SK-MEL-5 melanoma
# [18] = system: SK-OV-3 ovarian
# [19] = system: SN12C renal
# [20] = system: SNB-19 CNS
# [21] = system: SNB-75 CNS
# [22] = system: SR leukemia
# [23] = system: SW-620 colon
# [24] = system: T-47D breast
# [25] = system: TK-10 renal
# [26] = system: U251 CNS
# [27] = system: UACC-257 melanoma
# [28] = system: UACC-62 melanoma
# [29] = system: UO-31 renal
smiles,measurement,setting,value
CC(c1ccccc1)N1C(=O)CSC1=S (centres undefined),TGI,[1],> 100 µM
same,GI50,[2],6.82 µM
same,TGI,[2],> 46 µM
same,GI50,[3],0.97 µM
same,GI50,[4],0.114 µM
same,TGI,[4],3.81 µM
same,GI50,[5],0.232 µM
same,TGI,[5],1.23 µM
same,GI50,[6],1.36 µM
same,TGI,[6],> 100 µM
same,GI50,[7],4.05 µM
same,TGI,[7],49.4 µM
same,GI50,[8],2 µM
same,TGI,[8],> 100 µM
same,GI50,[9],0.989 µM
same,TGI,[9],> 100 µM
same,GI50,[10],0.382 µM
same,TGI,[10],34.2 µM
same,GI50,[11],0.747 µM
same,TGI,[11],6.27 µM
same,GI50,[12],1.01 µM
same,TGI,[12],45.7 µM
same,GI50,[13],2.86 µM
same,GI50,[14],0.228 µM
same,GI50,[15],0.604 µM
same,TGI,[15],12.4 µM
same,GI50,[16],3.52 µM
same,TGI,[16],54.1 µM
same,GI50,[17],1.86 µM
same,TGI,[17],9.83 µM
same,GI50,[18],2.39 µM
same,TGI,[18],> 81.8 µM
same,GI50,[19],0.701 µM
same,TGI,[19],> 100 µM
same,GI50,[20],0.302 µM
same,TGI,[20],1.1 µM
same,GI50,[21],2.89 µM
same,TGI,[21],> 22.2 µM
same,GI50,[22],0.109 µM
same,TGI,[22],> 100 µM
same,GI50,[23],0.418 µM
same,TGI,[23],> 38.5 µM
same,GI50,[24],4.1 µM
same,TGI,[24],70.6 µM
same,GI50,[25],8.78 µM
same,TGI,[25],> 93.3 µM
same,GI50,[26],0.4 µM
same,TGI,[26],16.5 µM
same,GI50,[27],3.22 µM
same,TGI,[27],33.8 µM
same,GI50,[28],0.33 µM
same,TGI,[28],10.7 µM
same,GI50,[29],5.73 µM
same,TGI,[29],> 83.5 µM
